Tested on: P12-Ichikawa
Assay: cell viability relative to DMSO control; higher = less cytotoxic
Conditions: 48 h
In short: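 Leukemia cells (NOMO1 or SEM, 500 cells/well; P12-Ichikawa, 1000 cells/well) were seeded in 5 μl in 1536-well plates after at least four passages of adaptation to each medium. They received library compounds in DMSO by pin dosing, 11 threefold points from 47 μM to 0.79 nM. Luminescence with CellTiter-Glo One was read after 48 h at 37°C. Viability is stated per plate relative to DMSO wells, with cell-free wells as background.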

[1] = HPLM + 10% dialyzed FBS, 0.000781 µM
[2] = HPLM + 10% dialyzed FBS, 0.00234 µM
[3] = HPLM + 10% dialyzed FBS, 0.00702 µM
[4] = HPLM + 10% dialyzed FBS, 0.0211 µM
[5] = HPLM + 10% dialyzed FBS, 0.0632 µM
[6] = HPLM + 10% dialyzed FBS, 0.19 µM
[7] = HPLM + 10% dialyzed FBS, 0.569 µM
[8] = HPLM + 10% dialyzed FBS, 1.71 µM
[9] = HPLM + 10% dialyzed FBS, 5.12 µM
[10] = HPLM + 10% dialyzed FBS, 15.4 µM
[11] = HPLM + 10% dialyzed FBS, 46.1 µM
[12] = RPMI 5 mM glucose + 10% FBS, 0.000781 µM
[13] = RPMI 5 mM glucose + 10% FBS, 0.00234 µM
[14] = RPMI 5 mM glucose + 10% FBS, 0.00702 µM
[15] = RPMI 5 mM glucose + 10% FBS, 0.0211 µM
[16] = RPMI 5 mM glucose + 10% FBS, 0.0632 µM
[17] = RPMI 5 mM glucose + 10% FBS, 0.19 µM
[18] = RPMI 5 mM glucose + 10% FBS, 0.569 µM
[19] = RPMI 5 mM glucose + 10% FBS, 1.71 µM
[20] = RPMI 5 mM glucose + 10% FBS, 5.12 µM
[21] = RPMI 5 mM glucose + 10% FBS, 15.4 µM
[22] = RPMI 5 mM glucose + 10% FBS, 46.1 µM
[23] = RPMI 5 mM glucose + 10% dialyzed FBS, 0.000781 µM
[24] = RPMI 5 mM glucose + 10% dialyzed FBS, 0.00234 µM
[25] = RPMI 5 mM glucose + 10% dialyzed FBS, 0.00702 µM
[26] = RPMI 5 mM glucose + 10% dialyzed FBS, 0.0211 µM
[27] = RPMI 5 mM glucose + 10% dialyzed FBS, 0.0632 µM
[28] = RPMI 5 mM glucose + 10% dialyzed FBS, 0.19 µM
[29] = RPMI 5 mM glucose + 10% dialyzed FBS, 0.569 µM
[30] = RPMI 5 mM glucose + 10% dialyzed FBS, 1.71 µM
[31] = RPMI 5 mM glucose + 10% dialyzed FBS, 5.12 µM
[32] = RPMI 5 mM glucose + 10% dialyzed FBS, 15.4 µM
[33] = RPMI 5 mM glucose + 10% dialyzed FBS, 46.1 µM

Row | Structure (SMILES) | cell viability [1] [%] | cell viability [2] [%] | cell viability [3] [%] | cell viability [4] [%] | cell viability [5] [%] | cell viability [6] [%] | cell viability [7] [%] | cell viability [8] [%] | cell viability [9] [%] | cell viability [10] [%] | cell viability [11] [%] | cell viability [12] [%] | cell viability [13] [%] | cell viability [14] [%] | cell viability [15] [%] | cell viability [16] [%] | cell viability [17] [%] | cell viability [18] [%] | cell viability [19] [%] | cell viability [20] [%] | cell viability [21] [%] | cell viability [22] [%] | cell viability [23] [%] | cell viability [24] [%] | cell viability [25] [%] | cell viability [26] [%] | cell viability [27] [%] | cell viability [28] [%] | cell viability [29] [%] | cell viability [30] [%] | cell viability [31] [%] | cell viability [32] [%] | cell viability [33] [%]
1 | Cc1nc(-c2ccc(-c3ccc(C(=O)N4CCc5cc6c(cc54)C4(CCN(C)CC4)CO6)cc3)c(C)c2)no1 | 106 | 114 | 111 | 116 | 122 | 111 | 121 | 123 | 119 | 119 | 120 | 107 | 112 | 106 | 116 | 117 | 114 | 123 | 115 | 121 | 124 | 118 | 107 | 107 | 113 | 116 | 110 | 121 | 120 | 116 | 115 | 121 | 126
2 | C=C1CCC2[C@](C)(CO)C(O)CC[C@]2(C)C1C/C=C1/C(=O)OCC1O (stereo partly drawn) | 122 | 124 | 122 | 114 | 121 | 117 | 104 | 103 | 106 | 114 | 115 | 115 | 112 | 118 | 106 | 114 | 110 | 108 | 109 | 107 | 98.6 | 107 | 120 | 115 | 124 | 115 | 116 | 111 | 109 | 103 | 98.7 | 110 | 106
3 | CC(O)(C[S+](=O)([O-])c1ccc(F)cc1)C(=O)Nc1ccc(C#N)c(C(F)(F)F)c1 (stereo not drawn) | 94.8 | 85.9 | 97.2 | 96.8 | 93.7 | 100 | 102 | 101 | 95.6 | 102 | 69.9 | 84.6 | 92.9 | 92.3 | 93.9 | 94.5 | 91.1 | 93.2 | 98.9 | 90.3 | 88.9 | 52.7 | 78.3 | 85.5 | 90.9 | 90.3 | 95.9 | 86.2 | 98.2 | 96.2 | 90.4 | 74 | 49.4
4 | OC(=O)CNC(=O)\C1=C(/O)C2=CC=CC=C2N(CC3=CC=CC=C3)C1=O | 97.6 | 113 | 102 | 104 | 104 | 100 | 105 | 101 | 101 | 103 | 39.4 | 98.7 | 108 | 113 | 114 | 108 | 101 | 102 | 107 | 93 | 97.2 | 92.8 | 90.4 | 97.9 | 104 | 95.1 | 93.1 | 94.4 | 94 | 93.1 | 95.8 | 94.5 | 5.26
5 | C[C@H](NC(=O)[C@@H](O)c1cc(F)cc(F)c1)C(=O)N[C@@H]1C(=O)N(C)c2ccccc2-c2ccccc21 | 118 | 116 | 111 | 119 | 106 | 108 | 105 | 101 | 96.8 | 102 | 90.1 | 114 | 116 | 119 | 115 | 114 | 111 | 102 | 90.5 | 99.8 | 101 | 94.3 | 114 | 110 | 109 | 109 | 106 | 101 | 99.6 | 106 | 95.8 | 94.3 | 78.5
6 | Nc1ncnc2nc(-c3ccc(N4CCOCC4)nc3)cc(-c3cccc(Br)c3)c12 | 116 | 128 | 117 | 122 | 117 | 117 | 115 | 119 | 111 | 108 | 113 | – | – | – | – | – | – | – | – | – | – | – | 114 | 121 | 112 | 121 | 118 | 121 | 129 | 115 | 115 | 108 | 112
7 | COc1cc(C[C@@H](CO)[C@H](CO)Cc2ccc(O)c(OC)c2)ccc1O | 94.8 | 102 | 100 | 105 | 106 | 116 | 112 | 111 | 104 | 99.6 | 115 | 99.4 | 95.1 | 108 | 109 | 109 | 111 | 118 | 119 | 114 | 117 | 110 | 109 | 112 | 113 | 118 | 118 | 122 | 119 | 133 | 134 | 136 | 125
8 | Cc1cnc(Nc2cccc(CN3CCOCC3)c2)nc1Nc1cccc([S+](=O)([O-])NC(C)(C)C)c1 | 90 | 91.9 | 90.5 | 96.2 | 91.9 | 89.3 | 95.1 | 92.2 | 44 | 91.5 | 54.4 | 91 | 87.7 | 85.9 | 92.2 | 89.8 | 88.7 | 80.8 | 86.4 | 20.5 | 88.2 | 73.4 | 80.8 | 83.2 | 82.6 | 79.7 | 85.9 | 82.3 | 85.4 | 81.4 | 41.7 | 76.8 | 53.1
